For 14 compounds, TGI and GI50 results are on record in PubChem BioAssay (NCI).

Test systems include IGROV1 ovarian; SK-OV-3 ovarian; SK-MEL-5 melanoma; A549 NSCLC; NCI-H460 lung; KM20L2 colon; DMS 114 small cell lung; HCT-15 colon; RPMI-8226 leukemia; HS 578T breast.
Assay in all cases: DTP human tumour cell line panel, 48 h

Structures are written as SMILES. Values joined by “and” are separate entries in the source; they are usually repeats but may differ in a detail not shown here. Equal values may be shown once.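 Cells were grown in 96-well plates and exposed to each compound for 48 hours at five concentrations; endpoints were interpolated linearly between bracketing concentrations, or set to the highest concentration if not reached. At the GI50, growth is halved. The concentration for full growth arrest is given as TGI.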

The term TGI denotes the concentration giving total growth inhibition. Read a low TGI as greater sensitivity of the cells. Consider `CCOc1ccc(/C=C/c2cc(OC)c(OC)c(OC)c2)cc1`, for which the TGI was more than 93.8 µM with IGROV1 ovarian; more than 30.2 µM with SK-OV-3 ovarian; 14.6 µM in the test on SK-MEL-5 melanoma; more than 100 µM with A549 NSCLC; more than 29.6 µM in the test on NCI-H460 lung; 6.81 µM in the test on KM20L2 colon. The figures for the TGI with DMS 114 small cell lung, in the test on HCT-15 colon and with RPMI-8226 leukemia were 5.15 µM, more than 22.1 µM and more than 100 µM, respectively.

`CN(C)CCC(CCN(C)C)=NO`: the TGI with IGROV1 ovarian, in the test on SK-OV-3 ovarian, in the test with SK-MEL-5 melanoma, in the test on A549 NSCLC, in the test with NCI-H460 lung and in the test on KM20L2 colon was more than 100 µM in each case. Moreover, the TGI in the test with DMS 114 small cell lung, with HCT-15 colon and with RPMI-8226 leukemia was more than 100 µM throughout.

On to `CC(=O)O[C@H]1CCN2C(=O)C=CC(OCc3ccccc3)C12` (stereo partly drawn), for which the TGI in the test with IGROV1 ovarian, with SK-OV-3 ovarian, in the test on SK-MEL-5 melanoma, in the test with A549 NSCLC, with NCI-H460 lung and in the test with KM20L2 colon was more than 100 µM each time. For the same compound, the TGI in the test with DMS 114 small cell lung, with HCT-15 colon and with RPMI-8226 leukemia was more than 100 µM each time.

In general, GI50 refers to the concentration giving 50% growth inhibition. With `C=CC(=O)NC(N)=NC#N`, the TGI in the test on IGROV1 ovarian worked out at 330 µM; in the test with SK-OV-3 ovarian, 315 µM; in the test on SK-MEL-5 melanoma, 301 µM; with A549 NSCLC it was 345 µM; in the test with NCI-H460 lung, 360 µM; in the test with KM20L2 colon it was 287 µM. Also, the total growth inhibition concentration (TGI) in the test with DMS 114 small cell lung was 250 µM; in the test with HCT-15 colon it was 258 µM; with RPMI-8226 leukemia, > 67.3 µM and 446 µM. Also, the GI50 in the test with RPMI-8226 leukemia is 91.6 µM.

As to `COc1cc(/C=C2\CCC/C(=C\c3ccc(O)c(OC)c3)C2=O)ccc1O`, the GI50 with IGROV1 ovarian is 1.85 µM; in the test with SK-OV-3 ovarian it was 2.36 µM; in the test on SK-MEL-5 melanoma, 1.54 µM; in the test with A549 NSCLC it was 1.96 µM; in the test with NCI-H460 lung, 2.05 µM; with HCT-15 colon, 1.49 µM. For the same compound, the GI50 was 2.25 µM with HS 578T breast and 0.397 µM in the test with RPMI-8226 leukemia. In addition, the TGI was 8.94 µM and 4.53 µM in the test on IGROV1 ovarian; 15.5 µM and 6.31 µM in the test with SK-OV-3 ovarian; 6.82 µM and 3.09 µM in the test on SK-MEL-5 melanoma; 10.8 µM and 5.04 µM in the test with A549 NSCLC; 11.2 µM and 4.96 µM with NCI-H460 lung; 28.7 µM in the test with KM20L2 colon. Besides, the TGI is 4.48 µM in the test on DMS 114 small cell lung; 8.44 µM and 3.36 µM with HCT-15 colon; 26.5 µM and 8.93 µM in the test with HS 578T breast; 10.8 µM and 3.59 µM with RPMI-8226 leukemia.

For `N#CCC(=O)N/N=C1/C(=O)N(c2cc(Cl)ccc2Cl)C(=O)C(=O)C1c1nc2ccccc2s1` (stereo not drawn), the TGI in the test with IGROV1 ovarian, in the test on SK-OV-3 ovarian, in the test on SK-MEL-5 melanoma, with A549 NSCLC, in the test on NCI-H460 lung and in the test on KM20L2 colon was more than 100 µM each time. The TGI in the test with DMS 114 small cell lung, with HCT-15 colon and in the test on RPMI-8226 leukemia was more than 100 µM in each case.

On to `Cn1c(=O)nc2n(-c3ccc(Cl)cc3)c3cc(Cl)ccc3nc-2c1=O`, for which the TGI with IGROV1 ovarian amounted to 3.74 µM; in the test with SK-OV-3 ovarian, 34.6 µM; with SK-MEL-5 melanoma it was 3.07 µM; with A549 NSCLC, 33 µM; with NCI-H460 lung, 27.1 µM; in the test on KM20L2 colon it was 35.7 µM. Further, the TGI with DMS 114 small cell lung came to 3.8 µM; in the test on HCT-15 colon it was 3.69 µM; with HS 578T breast it was 5.59 µM; in the test on RPMI-8226 leukemia, 22.8 µM.

On to `Cn1c2c(c3ccccc31)CCN(CCCCN1CCN(c3ccccc3)CC1)C2=O`, for which the TGI is more than 100 µM in the test on IGROV1 ovarian; more than 100 µM in the test with SK-OV-3 ovarian; 22.9 µM with SK-MEL-5 melanoma; more than 100 µM in the test on A549 NSCLC; more than 93.8 µM in the test on NCI-H460 lung; 33.6 µM in the test with KM20L2 colon. Moreover, the TGI was more than 79.1 µM in the test with DMS 114 small cell lung, more than 100 µM in the test on HCT-15 colon, 50.6 µM in the test on HS 578T breast and more than 92.3 µM with RPMI-8226 leukemia.

`O=C(OCCCl)C1OC(n2cc(F)c(=O)[nH]c2=O)CC1O` (stereo not drawn): the TGI in the test on IGROV1 ovarian, in the test with SK-OV-3 ovarian, with SK-MEL-5 melanoma, in the test on A549 NSCLC, with NCI-H460 lung and in the test with KM20L2 colon was more than 100 µM each time. The TGI with DMS 114 small cell lung, in the test with HCT-15 colon and with RPMI-8226 leukemia was more than 100 µM in each case.

As to `Cc1ccc(NC(=O)CC/C(CC(=O)C(C)(C)C)=N\NC(=O)C[n+]2ccccc2)cc1C`, the TGI in the test with IGROV1 ovarian, in the test on SK-OV-3 ovarian, in the test with SK-MEL-5 melanoma, with A549 NSCLC, in the test on NCI-H460 lung and in the test with KM20L2 colon was more than 100 µM in each case. Also, the TGI with DMS 114 small cell lung, in the test on HCT-15 colon and with RPMI-8226 leukemia was more than 100 µM throughout.

As for `O=C(N/C(=C\c1cccc([N+](=O)[O-])c1)c1nc2ccccc2[nH]1)c1ccccc1`, the total growth inhibition concentration (TGI) with IGROV1 ovarian, in the test with SK-OV-3 ovarian, with SK-MEL-5 melanoma, in the test with A549 NSCLC, in the test on NCI-H460 lung and with KM20L2 colon was more than 100 µM throughout. The concentration for total growth inhibition (TGI) with DMS 114 small cell lung, in the test with HCT-15 colon and with RPMI-8226 leukemia was more than 100 µM each time.

For `NS(=O)(=O)c1ccc(NC(=O)Cc2nc3ccccc3s2)cc1`, the TGI is 29.9 µM in the test with IGROV1 ovarian; 40.5 µM with SK-OV-3 ovarian; 34.5 µM in the test with SK-MEL-5 melanoma; 37.9 µM with A549 NSCLC; 35.6 µM with NCI-H460 lung; 33.9 µM with KM20L2 colon. Besides, the TGI came out at 29.2 µM in the test on DMS 114 small cell lung, 32.3 µM in the test with HCT-15 colon and 74.1 µM in the test with RPMI-8226 leukemia.

Consider `CC1=NN(C(=O)Nc2ccc(Cl)cc2)C(=O)C2CCC(=O)N12` (stereo not drawn), for which the TGI in the test on IGROV1 ovarian, with SK-OV-3 ovarian, in the test on SK-MEL-5 melanoma, with A549 NSCLC, with NCI-H460 lung and with KM20L2 colon was more than 100 µM throughout. Moreover, the TGI is more than 100 µM with DMS 114 small cell lung, 44.2 µM in the test with HCT-15 colon and more than 100 µM in the test with RPMI-8226 leukemia.

As for `CCN(CC)CC(C)C(=O)/C=C/c1ccc(C)cc1` (stereo not drawn), the TGI in the test with IGROV1 ovarian stood at 4.86 µM; with SK-OV-3 ovarian, 30.7 µM; in the test on SK-MEL-5 melanoma it was 17 µM; in the test on A549 NSCLC it was 13.4 µM; in the test on NCI-H460 lung, 17 µM; with KM20L2 colon, 21.6 µM. The TGI in the test on DMS 114 small cell lung was 3.2 µM; with HCT-15 colon, 5.71 µM; in the test on RPMI-8226 leukemia, more than 100 µM.
